{"source": "patent US7371776B2", "about": "“Methods and compositions for treating cancer” (Mars, Incorporated, priority 2004, dated 2008)", "format_in_all_cases": "cell-based, human", "key": {"PARP [1]": {"system": "PARP", "assay": "PARP cleavage in MDA MB-231 cells", "settings": "48 hours treatment", "excerpt": "(§1) Rabbit polyclonal poly (ADP-ribose) polymerase (PARP) (H-250) was obtained from Santa Cruz Biotechnology Inc., (Santa Cruz, Calif.). α-Tubulin antibody was obtained from Neomarkers, Fremont, Calif. All antibodies used for proteomics analysis were obtained from Cell Signaling (Beverly, Mass.), Upstate Biotechnology (Lake Placid, N.Y.), Neomarkers (Fremont, Calif.) and Santa Cruz (Santa Cruz, Calif.) (Table 2). Referring to Table 2, Abs designated as “mouse” were monoclonal Abs, and Abs designated as “rabbit” were polyclonal Abs. The ECL detection reagent was obtained from Amersham (Arlington Heights, Ill.).\n(§2) To determine whether depolarization of the mitochondrial membrane, induced by pentamer leads to apoptotic cellular death in human breast cancer cells lines, MDA MB-231 and MCF-7 cells were examined for PARP cleavage products. Since PARP is one of the downstream substrates of the caspase cascade, it is an excellent marker of apoptosis [Soldani, C. et al., Apoptosis, 7: 321-328, 2002]."}, "PARP [2]": {"system": "PARP", "assay": "PARP cleavage in MCF-7 cells", "settings": "48 hours treatment", "excerpt": "as §1, §2"}, "pRb": {"system": "pRb", "assay": "High resolution profiling (P-FILM) of pRb in MDA MB-231 cells", "settings": "100 μg/mL, 48 and 72 hours", "method": "(§3) Both p53 and pRb contain multiple phosphorylation sites, and evaluating each site separately provides a more accurate indication of each protein's potential function. Therefore, a high resolution functional profiling of the proteins was performed using P-FILM technology (20/20 Gene Systems, Inc.).\nThe same protein samples as those used for PDVF membrane blotting were used. Ten μg of each protein sample of MDA MB-231 cells, and in some cases MDA MB-468 and MCF-7 cells, treated with 100 μg /mL of pentamer or DMSO-treated controls, were separated by PAGE on 4-20% gradient gels (BioRad). Proteins were transferred on a stack of ten membranes, according to manufacturer's instructions (20/20 Gene Systems, Inc.). The membranes were probed with antibodies recognizing total and phosphorylated p53 (p53Ser6, Ser9, Ser15, Ser20, Ser37, Ser46 and Ser392) at 1:1000 dilution as recommended by the manufacturer (Cell Signaling). The secondary antibody used in all cases was anti-rabbit polyclonal 1:2000 (Amersham). Signals were visualized on BIOMAX MR film (Kodak). The profiling of pRb was done using anti-phospho pRb (Ser780, Ser 795 and Ser 807/811) and anti-pRb polyclonal antibody (Cell Signaling) at a 1:1000 dilution. The secondary antibody used in all cases was anti-rabbit at 1:2000 dilution (Amersham). Image analysis was performed with Kodak 1D image analysis software. […]"}, "p53 [3]": {"system": "p53", "assay": "High resolution profiling (P-FILM) of p53 in MDA MB-231 cells", "settings": "100 μg/mL", "method": "as §3\nThe same protein samples as those used for PDVF membrane blotting were used. Ten μg of each protein sample of MDA MB-231 cells, and in some cases MDA MB-468 and MCF-7 cells, treated with 100 μg /mL of pentamer or DMSO-treated controls, were separated by PAGE on 4-20% gradient gels (BioRad). Proteins were transferred on a stack of ten membranes, according to manufacturer's instructions (20/20 Gene Systems, Inc.). The membranes were probed with antibodies recognizing total and phosphorylated p53 (p53Ser6, Ser9, Ser15, Ser20, Ser37, Ser46 and Ser392) at 1:1000 dilution as recommended by the manufacturer (Cell Signaling). The secondary antibody used in all cases was anti-rabbit polyclonal 1:2000 (Amersham). Signals were visualized on BIOMAX MR film (Kodak). The profiling of pRb was done using anti-phospho pRb (Ser780, Ser 795 and Ser 807/811) and anti-pRb polyclonal antibody (Cell Signaling) at a 1:1000 dilution. The secondary antibody used in all cases was anti-rabbit at 1:2000 dilution (Amersham). Image analysis was performed with Kodak 1D image analysis software. Background corrected intensity values were normalized for loading by using GAPDH intensities. Numerical analysis was performed in Excel."}, "Stat 5 at Tyr 694": {"system": "Stat 5 at Tyr 694", "assay": "LPS multi-well plate phosphorylation screen in MDA MB-231 cells", "settings": "100 μg/mL", "excerpt": "(§4) Layered Protein Scanning (LPS) is a method for screening liquid protein samples in a high throughput manner using multi-well plates [Englert, C. R. et al., Cancer Res., 60: 1526-1530, 2000], and conducted by 20/20 Gene Systems, Inc., (Rockville, Md.). In short, cells are lysed and protein extract loaded into the wells of vacuum manifold and transferred through a stack of membranes. From each set of samples, up to five dot blot membranes are generated.\n(§5) MDA MB-231 human breast cancer cells were treated, with or without 100 μg/mL pentamer, for 48 and 72 hours. Cells were lysed in LPS/MWP lysis buffer (20/20 Gene Systems, Inc.). Protein concentration was determined using BCA Protein Assay Kit (Pierce, Rockford, Ill.). Ten and 20 μg of each protein sample was loaded in duplicate onto Bio-Dot Microfiltration Apparatus (BioRad, Philadelphia, Pa.) and transferred through a 5-membrane stack as recommended by the manufacturer (20/20 Gene Systems). After the transfer, all of the membranes were biotinylated in 1 mg/mL EZ-Link Sulfo-NHS-Biotin solution in 1×PBS for 10 minutes at room temperature (Pierce).\n(§6) Membranes were incubated overnight at 4° C. with the antibodies shown in Table 1 (1:500 or 1:1000 dilution). The following day, membranes were washed in Tris-buffered saline with Tween 20 (0.1%) (TBST buffer) and incubated for 60 minutes at room temperature in a mixture of FluoroLink Cy 5-labeled Streptavidin (1:500, Amersham) and Fluorescein-labeled secondary anti-mouse or anti-rabbit antibody (1:2,000, Molecular Probes, Eugene, Oreg.), followed by washes in TBST. Membranes were dried and scanned on a Typhoon scanner (Amersham), and obtained images were analyzed with InageQuant software (Amersham). Data were plotted in Excel and statistically analyzed in JMP (SAS Institute, Inc., Cary, N.C.). Hierarchical clustering analysis was performed to evaluate segregation of samples into control and treated groups."}, "Cdc2 (Tyr15)": {"system": "Cdc2 (Tyr15)", "assay": "LPS multi-well plate phosphorylation screen in MDA MB-231 cells", "settings": "100 μg/mL, densitometry vs control", "excerpt": "as §4, §5, §6"}, "[4]": {"system": "pRb at Ser 795 and Ser807/811", "assay": "LPS multi-well plate phosphorylation screen in MDA MB-231 cells", "settings": "100 μg/mL", "excerpt": "as §4, §5, §6"}, "[5]": {"system": "SAPK/JNK at Thr183/Tyr185", "assay": "LPS multi-well plate phosphorylation screen in MDA MB-231 cells", "settings": "100 μg/mL", "excerpt": "as §4, §5, §6"}, "p53 [6]": {"system": "p53", "assay": "LPS multi-well plate phosphorylation screen in MDA MB-231 cells", "settings": "100 μg/mL", "excerpt": "as §4, §5, §6"}, "FKHR (Ser256)": {"system": "FKHR (Ser256)", "assay": "LPS multi-well plate phosphorylation screen in MDA MB-231 cells", "settings": "100 μg/mL, 72 hours, densitometry vs control", "excerpt": "as §4, §5, §6"}, "PKC-δ at Ser643": {"system": "PKC-δ at Ser643", "assay": "LPS multi-well plate phosphorylation screen in MDA MB-231 cells", "settings": "100 μg/mL", "excerpt": "as §4, §5, §6"}}}
{"compound": "Oc1cc(O)c2c(c1)O[C@H](c1ccc(O)c(O)c1)[C@H](O)[C@H]2c1c(O)cc(O)c2c1O[C@H](c1ccc(O)c(O)c1)[C@H](O)[C@H]2c1c(O)cc(O)c2c1O[C@H](c1ccc(O)c(O)c1)[C@H](O)[C@H]2c1c(O)cc(O)c2c1O[C@H](c1ccc(O)c(O)c1)[C@H](O)[C@H]2c1c(O)cc(O)c2c1O[C@H](c1ccc(O)c(O)c1)[C@H](O)C2", "note": "[pentamer, pentameric procyanidin]", "values": [{"measurement": "main band of PARP (cleavage)", "setting": "PARP [1]", "result": "uncleaved"}, {"measurement": "cleaved PARP fragment", "setting": "PARP [2]", "result": "no cleaved PARP fragment was detected"}, {"measurement": "full-length PARP (116 kDa)", "setting": "PARP [2]", "result": "decrease"}, {"measurement": "phosphorylation of pRb on all tested residues (Ser780, Ser795 and Ser807/811)", "setting": "pRb", "result": "decrease"}, {"measurement": "protein expression of endogenous pRb", "setting": "pRb", "result": "decrease"}, {"measurement": "percentage of p53 phosphorylated at Ser392 decreased, compared to untreated controls", "setting": "p53 [3]", "result": 53, "unit": "%"}, {"measurement": "phosphorylation of p53 Ser15 residue", "setting": "p53 [3]; 48 h", "result": "slight decreases"}, {"measurement": "phosphorylation of p53 Ser46", "setting": "p53 [3]; 48 h", "result": "slight decreases"}, {"measurement": "phosphorylation of p53 Ser20 residue", "setting": "p53 [3]; 48 hrs", "result": "decreased"}, {"measurement": "levels of endogenous p53 expression", "setting": "p53 [3]; 48 hrs, not significant by densitometry", "result": "slightly decreased"}, {"measurement": "phosphorylation of p53 Ser20 residue", "setting": "p53 [3]; 72 hrs", "result": "not affected"}, {"measurement": "phosphorylation of p53 Ser392 residue", "setting": "p53 [3]; both 48 and 72 hrs", "result": "significant dephosphorylation"}, {"measurement": "Stat 5 phosphorylation at Tyr 694 decreased", "setting": "Stat 5 at Tyr 694; 48 hrs", "result": 28, "unit": "%"}, {"measurement": "Stat 5 phosphorylation at Tyr 694 decreased", "setting": "Stat 5 at Tyr 694; 72 hrs", "result": 33, "unit": "%"}, {"measurement": "phosphorylation of Cdc2 (Tyr15) decreased", "setting": "Cdc2 (Tyr15); 48 hrs", "result": 31, "unit": "%"}, {"measurement": "phosphorylation of Cdc2 (Tyr15) decreased", "setting": "Cdc2 (Tyr15); 72 hrs", "result": 45, "unit": "%"}, {"measurement": "phosphorylation of pRb at Ser 795 and Ser807/811 decreased", "setting": "[4]; 48 hrs", "result": 36, "unit": "%"}, {"measurement": "phosphorylation of pRb at Ser 795 and Ser807/811 decreased", "setting": "[4]; 72 hrs", "result": 40, "unit": "%"}, {"measurement": "phosphorylation of SAPK/JNK at Thr183/Tyr185 decreased", "setting": "[5]; 48 hrs", "result": 34, "unit": "%"}, {"measurement": "phosphorylation of SAPK/JNK at Thr183/Tyr185 decreased", "setting": "[5]; 72 hrs", "result": 26, "unit": "%"}, {"measurement": "phosphorylation of p53 residues Ser6, Ser9, Ser20 and Ser15", "setting": "p53 [6]; LPS", "result": "not significantly affected"}, {"measurement": "phosphorylation of p53 (antibody mix at Ser37, 46 and 392) decreased", "setting": "p53 [6]; post treatment, densitometry vs control", "result": 36, "unit": "%"}, {"measurement": "phosphorylation of FKHR (Ser256) decreased", "setting": "FKHR (Ser256)", "result": 63, "unit": "%"}, {"measurement": "phosphorylation of PKC-δ at Ser643 decreased", "setting": "PKC-δ at Ser643; 48 hrs", "result": 22, "unit": "%"}, {"measurement": "phosphorylation of PKC-δ at Ser643 decreased", "setting": "PKC-δ at Ser643; 72 hrs", "result": 49, "unit": "%"}]}
